According to patent publication US12215140B2, “Method of stabilizing protein contained in specimen and solution for stabilizing protein contained in specimen” (EIKEN KAGAKU KABUSHIKI KAISHA, priority 2018, dated 2025):

Tested on: hemoglobin-haptoglobin complex
Experiment: Stability of hemoglobin (as hemoglobin-haptoglobin complex) in samples preserved at 37° C. in preservation solution containing 1 unit/L haptoglobin, Hb measured by latex agglutination method (Examples 1 to 7)
Set-up: species or system human
Conditions: 37° C.
In short: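 Latex agglutination (anti-human hemoglobin rabbit polyclonal latex) measured Hb in samples stored at 37 °C up to 21 days; values expressed as % recovery versus day 0. Preservation solution: HEPES 40 mmol/L pH 6.8, BSA 0.1%, NaN3 0.1%, haptoglobin 1 unit/L, phenylboronic acid 0–100 mmol/L, optional sugars; ~300 µg/L Hb, 0.5% feces or none.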

[1] = Feces 1, sugar 50 mmol/L + phenylboronic acid 15 mmol/L, 0 days
[2] = Feces 1, sugar 50 mmol/L + phenylboronic acid 15 mmol/L, 7 days
[3] = Feces 1, sugar 50 mmol/L + phenylboronic acid 15 mmol/L, 14 days
[4] = Feces 1, sugar 50 mmol/L + phenylboronic acid 15 mmol/L, 21 days
[5] = Feces 1, sugar 100 mmol/L + phenylboronic acid 0.5 mmol/L, 0 days
[6] = Feces 1, sugar 100 mmol/L + phenylboronic acid 0.5 mmol/L, 7 days
[7] = Feces 1, sugar 100 mmol/L + phenylboronic acid 0.5 mmol/L, 14 days
[8] = Feces 1, sugar 100 mmol/L + phenylboronic acid 15 mmol/L, 0 days
[9] = Feces 1, sugar 100 mmol/L + phenylboronic acid 15 mmol/L, 0 days (Table 7)
[10] = Feces 1, sugar 100 mmol/L + phenylboronic acid 15 mmol/L, 7 days
[11] = Feces 1, sugar 100 mmol/L + phenylboronic acid 15 mmol/L, 7 days (Table 7)
[12] = Feces 1, sugar 100 mmol/L + phenylboronic acid 15 mmol/L, 14 days
[13] = Feces 1, sugar 100 mmol/L + phenylboronic acid 15 mmol/L, 14 days (Table 7)
[14] = Feces 1, sugar 100 mmol/L + phenylboronic acid 15 mmol/L, 21 days
[15] = Feces 1, sugar 100 mmol/L + phenylboronic acid 50 mmol/L, 0 days
[16] = Feces 1, sugar 100 mmol/L + phenylboronic acid 50 mmol/L, 7 days
[17] = Feces 1, sugar 100 mmol/L + phenylboronic acid 50 mmol/L, 14 days
[18] = Feces 1, sugar 100 mmol/L, no phenylboronic acid, 0 days
[19] = Feces 1, sugar 100 mmol/L, no phenylboronic acid, 7 days
[20] = Feces 1, sugar 100 mmol/L, no phenylboronic acid, 14 days
[21] = Feces 1, sugar 100 mmol/L, no phenylboronic acid, 21 days
[22] = Feces 2, sugar 50 mmol/L + phenylboronic acid 15 mmol/L, 0 days
[23] = Feces 2, sugar 50 mmol/L + phenylboronic acid 15 mmol/L, 7 days
[24] = Feces 2, sugar 50 mmol/L + phenylboronic acid 15 mmol/L, 14 days
[25] = Feces 2, sugar 50 mmol/L + phenylboronic acid 15 mmol/L, 21 days
[26] = Feces 2, sugar 100 mmol/L + phenylboronic acid 0.5 mmol/L, 0 days
[27] = Feces 2, sugar 100 mmol/L + phenylboronic acid 0.5 mmol/L, 7 days
[28] = Feces 2, sugar 100 mmol/L + phenylboronic acid 0.5 mmol/L, 14 days
[29] = Feces 2, sugar 100 mmol/L + phenylboronic acid 15 mmol/L, 0 days
[30] = Feces 2, sugar 100 mmol/L + phenylboronic acid 15 mmol/L, 0 days (Table 7)
[31] = Feces 2, sugar 100 mmol/L + phenylboronic acid 15 mmol/L, 7 days
[32] = Feces 2, sugar 100 mmol/L + phenylboronic acid 15 mmol/L, 7 days (Table 7)
[33] = Feces 2, sugar 100 mmol/L + phenylboronic acid 15 mmol/L, 14 days
[34] = Feces 2, sugar 100 mmol/L + phenylboronic acid 15 mmol/L, 14 days (Table 7)
[35] = Feces 2, sugar 100 mmol/L + phenylboronic acid 15 mmol/L, 21 days
[36] = Feces 2, sugar 100 mmol/L + phenylboronic acid 50 mmol/L, 0 days
[37] = Feces 2, sugar 100 mmol/L + phenylboronic acid 50 mmol/L, 7 days
[38] = Feces 2, sugar 100 mmol/L + phenylboronic acid 50 mmol/L, 14 days
[39] = Feces 2, sugar 100 mmol/L, no phenylboronic acid, 0 days
[40] = Feces 2, sugar 100 mmol/L, no phenylboronic acid, 7 days
[41] = Feces 2, sugar 100 mmol/L, no phenylboronic acid, 14 days
[42] = Feces 2, sugar 100 mmol/L, no phenylboronic acid, 21 days
[43] = Feces 3, sugar 50 mmol/L + phenylboronic acid 15 mmol/L, 0 days

Compound: OC[C@@H](O)[C@@H](O)[C@H](O)[C@@H](O)CO [Sorbitol, sorbitol]
- Hb concentration [1]: 291 µg/L
- Recovery ratio with respect to Hb concentration after 0 days [1]: 100%
- Hb concentration [2]: 300 µg/L
- Recovery ratio with respect to Hb concentration after 0 days [2]: 103%
- Hb concentration [3]: 300 µg/L
- Recovery ratio with respect to Hb concentration after 0 days [3]: 103%
- Hb concentration [4]: 296 µg/L
- Recovery ratio with respect to Hb concentration after 0 days [4]: 102%
- Hb concentration [5]: 310 µg/L
- Recovery ratio with respect to Hb after 0 days [5]: 100%
- Hb concentration [6]: 206 µg/L
- Recovery ratio with respect to Hb after 0 days [6]: 66%
- Hb concentration [7]: 178 µg/L
- Recovery ratio with respect to Hb after 0 days [7]: 57%
- Hb concentration [8]: 287 µg/L
- Recovery ratio with respect to Hb concentration after 0 days [8]: 100%
- Hb concentration [9]: 301 µg/L
- Recovery ratio with respect to Hb after 0 days [9]: 100%
- Hb concentration [10]: 292 µg/L
- Recovery ratio with respect to Hb concentration after 0 days [10]: 102%
- Hb concentration [11]: 297 µg/L
- Recovery ratio with respect to Hb after 0 days [11]: 99%
- Hb concentration [12]: 294 µg/L
- Recovery ratio with respect to Hb concentration after 0 days [12]: 102%
- Hb concentration [13]: 295 µg/L
- Recovery ratio with respect to Hb after 0 days [13]: 98%
- Hb concentration [14]: 290 µg/L
- Recovery ratio with respect to Hb concentration after 0 days [14]: 101%
- Hb concentration [15]: 281 µg/L
- Recovery ratio with respect to Hb after 0 days [15]: 100%
- Hb concentration [16]: 274 µg/L
- Recovery ratio with respect to Hb after 0 days [16]: 98%
- Hb concentration [17]: 275 µg/L
- Recovery ratio with respect to Hb after 0 days [17]: 98%
- Hb concentration [18]: 283 µg/L
- Recovery ratio with respect to Hb concentration after 0 days [18]: 100%
- Hb concentration [19]: 143 µg/L
- Recovery ratio with respect to Hb concentration after 0 days [19]: 51%
- Hb concentration [20]: 102 µg/L
- Recovery ratio with respect to Hb concentration after 0 days [20]: 36%
- Hb concentration [21]: 97 µg/L
- Recovery ratio with respect to Hb concentration after 0 days [21]: 34%
- Hb concentration [22]: 281 µg/L
- Recovery ratio with respect to Hb concentration after 0 days [22]: 100%
- Hb concentration [23]: 280 µg/L
- Recovery ratio with respect to Hb concentration after 0 days [23]: 100%
- Hb concentration [24]: 252 µg/L
- Recovery ratio with respect to Hb concentration after 0 days [24]: 90%
- Hb concentration [25]: 222 µg/L
- Recovery ratio with respect to Hb concentration after 0 days [25]: 79%
- Hb concentration [26]: 301 µg/L
- Recovery ratio with respect to Hb after 0 days [26]: 100%
- Hb concentration [27]: 173 µg/L
- Recovery ratio with respect to Hb after 0 days [27]: 57%
- Hb concentration [28]: 154 µg/L
- Recovery ratio with respect to Hb after 0 days [28]: 51%
- Hb concentration [29]: 274 µg/L
- Recovery ratio with respect to Hb concentration after 0 days [29]: 100%
- Hb concentration [30]: 299 µg/L
- Recovery ratio with respect to Hb after 0 days [30]: 100%
- Hb concentration [31]: 276 µg/L
- Recovery ratio with respect to Hb concentration after 0 days [31]: 101%
- Hb concentration [32]: 300 µg/L
- Recovery ratio with respect to Hb after 0 days [32]: 100%
- Hb concentration [33]: 246 µg/L
- Recovery ratio with respect to Hb concentration after 0 days [33]: 90%
- Hb concentration [34]: 298 µg/L
- Recovery ratio with respect to Hb after 0 days [34]: 100%
- Hb concentration [35]: 219 µg/L
- Recovery ratio with respect to Hb concentration after 0 days [35]: 80%
- Hb concentration [36]: 275 µg/L
- Recovery ratio with respect to Hb after 0 days [36]: 100%
- Hb concentration [37]: 279 µg/L
- Recovery ratio with respect to Hb after 0 days [37]: 101%
- Hb concentration [38]: 284 µg/L
- Recovery ratio with respect to Hb after 0 days [38]: 103%
- Hb concentration [39]: 277 µg/L
- Recovery ratio with respect to Hb concentration after 0 days [39]: 100%
- Hb concentration [40]: 113 µg/L
- Recovery ratio with respect to Hb concentration after 0 days [40]: 41%
- Hb concentration [41]: 77 µg/L
- Recovery ratio with respect to Hb concentration after 0 days [41]: 28%
- Hb concentration [42]: 51 µg/L
- Recovery ratio with respect to Hb concentration after 0 days [42]: 18%
- Hb concentration [43]: 283 µg/L
- Recovery ratio with respect to Hb concentration after 0 days [43]: 100%
